Measurements from patent US7273866B2, “2-aryl thiazole derivatives as KCNQ modulators” (Bristol-Myers Squibb Company, priority 2002, dated 2007).

Tests used:
[1] = test system: KCNQ channels; assay: Thallium flux assay for KCNQ channel openers; type: cell-based; conditions: HEK-293 cells stably transfected with a KCNQ family member
Summary of the method: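 HEK-293 lines stably expressing individual KCNQ members, loaded with BTC-AM in chloride-free buffer pH 7.3, compound added (1% DMSO final) before 7.5 mM Tl2SO4 stimulus; fluorescence read 60 s on FLIPR. Minimal active concentration at ≥4 SD above negative controls; EC50 from 10-point logistic fit.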

[2] = test system: systemic polyneuropathy nerve injury-induced tactile allodynia; assay: Diabetic model of neuropathic pain (Streptozoticin & von Frey test); type: in vivo, Sprague Dawley rats; conditions: 10 mg/kg, i.v.; STZ diabetic rats, von Frey thresholds over 90 min
Protocol: Diabetic model of neuropathic pain (Streptozoticin & von Frey test). To test agents for activity against systemic polyneuropathy nerve injury-induced tactile allodynia, animals were treated with streptozoticin (STZ) to create a diabetic condition by selective cytotoxic action upon pancreatic β-islet cells that produce insulin following the method of Courteix, et al. (Courteix C., et al., (1993) Pain, April; 53(1):81-8). In brief, male Sprague Dawley rats (wt. 200-275 g) received an injection of STZ (75 mg/kg, i.p.) and diabetes was confirmed three weeks after STZ injection by measurement of tail vein blood glucose levels. After 3-4 weeks, paw withdrawal to light touch was assessed as described by Chaplan et al. (Chaplan S. R., et al., (1994) J Neurosci Methods, July; 53(1):55-63). In brief, rats are placed in a plastic cage with a wire mesh bottom and allowed to acclimate for 15-30 minutes, until cage exploration and grooming stops. […] After acclimation, baseline von Frey thresholds were assessed for the injured hindpaw at −15 min. […] Following drug administration, von Frey thresholds were measured at 15, 30, 60 and 90 min. Data were analyzed by a 2-way repeated measures analysis of variance followed by Dunnett's test (p<0.05). […]

## CC(NC(=O)c1sc(-c2ccccc2F)nc1C(F)(F)F)c1cccc(OC(F)(F)F)c1 (stereo not drawn) [Example 21, 2-(2-fluorophenyl)-4-(trifluoromethyl)-N-[1-[3-(trifluoromethoxy)phenyl]ethyl]-5-thiazolecarboxamide]
[1]; minimal active concentration: lowest concentration giving signal amplitude >= four standard deviations of negative controls
  Min. conc. response: 0.3 µM
[1]; thallium flux, 10 point concentration series
  EC50: < 50 nM
[2]
  AUC (Δ % MPE): 28 (10 mg/kg, i.v.) Δ % MPE
